Results published in patent US20260262643A1, “HERBICIDAL BENZOXAZINES” (FMC CORPORATION, priority 2022, published 2026).

Columns and labels:
[1] = tested on: blackgrass; assay: Test A preemergence; format: in vivo, Alopecurus myosuroides
Outline: (§1)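 Visual injury ratings on a 0–100 scale (100 = complete control) versus untreated controls, taken 10 days after treatment in greenhouse. Preemergence: directed soil spray onto seeded loam/sand. Postemergence: foliar application at one- to two-leaf stage, plants 2–10 cm. Formulation: non-phytotoxic solvent plus surfactant.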

[2] = tested on: corn; assay: Test A preemergence; format: in vivo, Zea mays
Outline: as §1

[3] = tested on: foxtail, giant; assay: Test A preemergence; format: in vivo, Setaria faberi
Outline: as §1

[4] = tested on: goosegrass; assay: Test A preemergence; format: in vivo, Eleusine indica
Outline: as §1

[5] = tested on: kochia; assay: Test A preemergence; format: in vivo, Bassia scoparia
Outline: as §1

[6] = tested on: oat, wild; assay: Test A preemergence; format: in vivo, Avena fatua
Outline: as §1

[7] = tested on: pigweed, palmer; assay: Test A preemergence; format: in vivo, Amaranthus palmeri
Outline: as §1

[8] = tested on: ragweed; assay: Test A preemergence; format: in vivo, Ambrosia artemisiifolia
Outline: as §1

[9] = tested on: ryegrass, Italian; assay: Test A preemergence; format: in vivo, Lolium multiflorum
Outline: as §1

[10] = tested on: soybean; assay: Test A preemergence; format: in vivo, Glycine max
Outline: as §1

[11] = tested on: wheat; assay: Test A preemergence; format: in vivo, Triticum aestivum
Outline: as §1

[12] = tested on: blackgrass; assay: Test A postemergence; format: in vivo, Alopecurus myosuroides; details: postemergence, 10 days; for Blackgrass plant response rating: 125 g ai/ha, 0 to 100 scale, 0 no effect, 100 complete control; for Plant response rating, Blackgrass: 500 g ai/ha, visual injury, 0 to 100 scale (0 no effect, 100 complete control)
Outline: as §1

[13] = tested on: corn; assay: Test A postemergence; format: in vivo, Zea mays; details: postemergence, 10 days; for Corn plant response rating: 125 g ai/ha, 0 to 100 scale, 0 no effect, 100 complete control; for Plant response rating, Corn: 500 g ai/ha, visual injury, 0 to 100 scale (0 no effect, 100 complete control)
Outline: as §1

[14] = tested on: foxtail, giant; assay: Test A postemergence; format: in vivo, Setaria faberi; details: postemergence, 10 days; for Foxtail, Giant plant response rating: 125 g ai/ha, 0 to 100 scale, 0 no effect, 100 complete control; for Plant response rating, Foxtail, Giant: 500 g ai/ha, visual injury, 0 to 100 scale (0 no effect, 100 complete control)
Outline: as §1

[15] = tested on: goosegrass; assay: Test A postemergence; format: in vivo, Eleusine indica; details: postemergence, 10 days; for Goosegrass plant response rating: 125 g ai/ha, 0 to 100 scale, 0 no effect, 100 complete control; for Plant response rating, Goosegrass: 500 g ai/ha, visual injury, 0 to 100 scale (0 no effect, 100 complete control)
Outline: as §1

[16] = tested on: kochia; assay: Test A postemergence; format: in vivo, Bassia scoparia; details: postemergence, 10 days; for Kochia plant response rating: 125 g ai/ha, 0 to 100 scale, 0 no effect, 100 complete control; for Plant response rating, Kochia: 500 g ai/ha, visual injury, 0 to 100 scale (0 no effect, 100 complete control)
Outline: as §1

[17] = tested on: oat, wild; assay: Test A postemergence; format: in vivo, Avena fatua; details: postemergence, 10 days; for Oat, Wild plant response rating: 125 g ai/ha, 0 to 100 scale, 0 no effect, 100 complete control; for Plant response rating, Oat, Wild: 500 g ai/ha, visual injury, 0 to 100 scale (0 no effect, 100 complete control)
Outline: as §1

[18] = tested on: pigweed, palmer; assay: Test A postemergence; format: in vivo, Amaranthus palmeri; details: postemergence, 10 days; for Pigweed, Palmer plant response rating: 125 g ai/ha, 0 to 100 scale, 0 no effect, 100 complete control; for Plant response rating, Pigweed, Palmer: 500 g ai/ha, visual injury, 0 to 100 scale (0 no effect, 100 complete control)
Outline: as §1

[19] = tested on: ragweed; assay: Test A postemergence; format: in vivo, Ambrosia artemisiifolia; details: postemergence, 10 days; for Ragweed plant response rating: 125 g ai/ha, 0 to 100 scale, 0 no effect, 100 complete control; for Plant response rating, Ragweed: 500 g ai/ha, visual injury, 0 to 100 scale (0 no effect, 100 complete control)
Outline: as §1

[20] = tested on: ryegrass, Italian; assay: Test A postemergence; format: in vivo, Lolium multiflorum; details: postemergence, 10 days; for Ryegrass, Italian plant response rating: 125 g ai/ha, 0 to 100 scale, 0 no effect, 100 complete control; for Plant response rating, Ryegrass, Italian: 500 g ai/ha, visual injury, 0 to 100 scale (0 no effect, 100 complete control)
Outline: as §1

[21] = tested on: soybean; assay: Test A postemergence; format: in vivo, Glycine max; details: postemergence, 10 days; for Soybean plant response rating: 125 g ai/ha, 0 to 100 scale, 0 no effect, 100 complete control; for Plant response rating, Soybean: 500 g ai/ha, visual injury, 0 to 100 scale (0 no effect, 100 complete control)
Outline: as §1

[22] = tested on: wheat; assay: Test A postemergence; format: in vivo, Triticum aestivum; details: postemergence, 10 days; for Wheat plant response rating: 125 g ai/ha, 0 to 100 scale, 0 no effect, 100 complete control; for Plant response rating, Wheat: 500 g ai/ha, visual injury, 0 to 100 scale (0 no effect, 100 complete control)
Outline: as §1

[23] = tested on: galium; assay: Test A postemergence; format: in vivo, Galium aparine; details: postemergence, 10 days; for Galium plant response rating: 125 g ai/ha, 0 to 100 scale, 0 no effect, 100 complete control; for Plant response rating, Galium: 500 g ai/ha, visual injury, 0 to 100 scale (0 no effect, 100 complete control)
Outline: as §1

[24] = tested on: horseweed; assay: Test A postemergence; format: in vivo, Erigeron canadensis; details: postemergence, 10 days; for Horseweed plant response rating: 125 g ai/ha, 0 to 100 scale, 0 no effect, 100 complete control; for Plant response rating, Horseweed: 500 g ai/ha, visual injury, 0 to 100 scale (0 no effect, 100 complete control)
Outline: as §1

[25] = tested on: barnyardgrass; assay: Test B flooded paddy test; format: in vivo, Echinochloa crus-galli; details: 250 g ai/ha, Flood, 13 days, 0 to 100 scale (0 no effect, 100 complete control)
Outline: (§2)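 Species grown to 2-leaf stage; pots flooded 3 cm above soil and compound applied directly to paddy water, depth maintained throughout. After 13 days in greenhouse, plants visually rated against controls on 0–100 scale (0 no effect, 100 complete control); dash means no result.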

[26] = tested on: ducksalad; assay: Test B flooded paddy test; format: in vivo, Heteranthera limosa; details: 250 g ai/ha, Flood, 13 days, 0 to 100 scale (0 no effect, 100 complete control)
Outline: as §2

[27] = tested on: rice; assay: Test B flooded paddy test; format: in vivo, Oryza sativa; details: 250 g ai/ha, Flood, 13 days, 0 to 100 scale (0 no effect, 100 complete control)
Outline: as §2

[28] = tested on: sedge, umbrella; assay: Test B flooded paddy test; format: in vivo, Cyperus difformis; details: 250 g ai/ha, Flood, 13 days, 0 to 100 scale (0 no effect, 100 complete control)
Outline: as §2

[29] = 125 g ai/ha, visual injury after 10 days, 0 to 100 scale, 0 is no effect, 100 is complete control
[30] = 500 g ai/ha, 0 to 100 scale (0 no effect, 100 complete control), 10 days

Structure (SMILES): Cc1ccc(-n2cnc(C3CCC3)n2)cc1C(=O)N1C[C@H](C)Oc2c(C)cccc21 [Compound 97]
- Plant response rating, Blackgrass [1, 29]: 10
- Plant response rating, Blackgrass [1, 30]: 40
- Plant response rating, Corn [2, 29]: 10
- Plant response rating, Corn [2, 30]: 20
- Plant response rating, Foxtail, Giant [3, 29]: 100
- Plant response rating, Foxtail, Giant [3, 30]: 100
- Plant response rating, Goosegrass [4, 29]: 100
- Plant response rating, Goosegrass [4, 30]: 100
- Plant response rating, Kochia [5, 29]: 60
- Plant response rating, Kochia [5, 30]: 80
- Plant response rating, Oat, Wild [6, 29]: 90
- Plant response rating, Oat, Wild [6, 30]: 90
- Plant response rating, Pigweed, Palmer [7, 29]: 100
- Plant response rating, Pigweed, Palmer [7, 30]: 100
- Plant response rating, Ragweed [8, 29]: 30
- Plant response rating, Ragweed [8, 30]: 80
- Plant response rating, Ryegrass, Italian [9, 29]: 70
- Plant response rating, Ryegrass, Italian [9, 30]: 100
- Plant response rating, Soybean [10, 29]: 40
- Plant response rating, Soybean [10, 30]: 100
- Plant response rating, Wheat [11, 29]: 10
- Plant response rating, Wheat [11, 30]: 40
- Blackgrass plant response rating [12]: 30
- Plant response rating, Blackgrass [12]: 80
- Corn plant response rating [13]: 30
- Plant response rating, Corn [13]: 70
- Foxtail, Giant plant response rating [14]: 90
- Plant response rating, Foxtail, Giant [14]: 90
- Goosegrass plant response rating [15]: 70
- Plant response rating, Goosegrass [15]: 90
- Kochia plant response rating [16]: 70
- Plant response rating, Kochia [16]: 100
- Oat, Wild plant response rating [17]: 30
- Plant response rating, Oat, Wild [17]: 70
- Pigweed, Palmer plant response rating [18]: 90
- Plant response rating, Pigweed, Palmer [18]: 100
- Ragweed plant response rating [19]: 50
- Plant response rating, Ragweed [19]: 80
- Ryegrass, Italian plant response rating [20]: 40
- Plant response rating, Ryegrass, Italian [20]: 80
- Soybean plant response rating [21]: 100
- Plant response rating, Soybean [21]: 100
- Wheat plant response rating [22]: 20
- Plant response rating, Wheat [22]: 70
- Galium plant response rating [23]: 80
- Plant response rating, Galium [23]: 100
- Horseweed plant response rating [24]: 30
- Plant response rating, Horseweed [24]: 90
- Plant response rating, Barnyardgrass [25]: 0
- Plant response rating, Ducksalad [26]: 0
- Plant response rating, Rice [27]: 0
- Plant response rating, Sedge, Umbrella [28]: 0

Structure (SMILES): CCc1ncn(-c2ccc(C)c(C(=O)N3C[C@H](C)Oc4c(C)cccc43)c2)n1 [Compound 98]
- Plant response rating, Blackgrass [1, 29]: 60
- Plant response rating, Blackgrass [1, 30]: 80
- Plant response rating, Corn [2, 29]: 10
- Plant response rating, Corn [2, 30]: 30
- Plant response rating, Foxtail, Giant [3, 29]: 100
- Plant response rating, Foxtail, Giant [3, 30]: 100
- Plant response rating, Goosegrass [4, 29]: 100
- Plant response rating, Goosegrass [4, 30]: 100
- Plant response rating, Kochia [5, 29]: 80
- Plant response rating, Kochia [5, 30]: 100
- Plant response rating, Oat, Wild [6, 29]: 70
- Plant response rating, Oat, Wild [6, 30]: 90
- Plant response rating, Pigweed, Palmer [7, 29]: 100
- Plant response rating, Pigweed, Palmer [7, 30]: 100
- Plant response rating, Ragweed [8, 29]: 30
- Plant response rating, Ragweed [8, 30]: 90
- Plant response rating, Ryegrass, Italian [9, 29]: 100
- Plant response rating, Ryegrass, Italian [9, 30]: 100
- Plant response rating, Soybean [10, 29]: 90
- Plant response rating, Soybean [10, 30]: 100
- Plant response rating, Wheat [11, 29]: 50
- Plant response rating, Wheat [11, 30]: 60
- Blackgrass plant response rating [12]: 70
- Plant response rating, Blackgrass [12]: 90
- Corn plant response rating [13]: 50
- Plant response rating, Corn [13]: 90
- Foxtail, Giant plant response rating [14]: 90
- Plant response rating, Foxtail, Giant [14]: 90
- Goosegrass plant response rating [15]: 80
- Plant response rating, Goosegrass [15]: 100
- Kochia plant response rating [16]: 80
- Plant response rating, Kochia [16]: 90
- Oat, Wild plant response rating [17]: 80
- Plant response rating, Oat, Wild [17]: 90
- Pigweed, Palmer plant response rating [18]: 90
- Plant response rating, Pigweed, Palmer [18]: 100
- Ragweed plant response rating [19]: 60
- Plant response rating, Ragweed [19]: 60
- Ryegrass, Italian plant response rating [20]: 70
- Plant response rating, Ryegrass, Italian [20]: 100
- Soybean plant response rating [21]: 100
- Plant response rating, Soybean [21]: 100
- Wheat plant response rating [22]: 80
- Plant response rating, Wheat [22]: 90
- Galium plant response rating [23]: 100
- Plant response rating, Galium [23]: 100
- Horseweed plant response rating [24]: 30
- Plant response rating, Horseweed [24]: 60
- Plant response rating, Barnyardgrass [25]: 45
- Plant response rating, Ducksalad [26]: 65
- Plant response rating, Rice [27]: 30
- Plant response rating, Sedge, Umbrella [28]: 90
